# Measured values published in patent publication US5672715A, “Herbicidal substituted 3-aryl-pyrazoles” (Monsanto Company, priority 1995, dated 1997).
# Legend:
# Assay type in all cases: in vivo
# Green Foxtail [1] = test: pre-emergence herbicide test; details: Setaria viridis, pre-emergence; 0.25 lb/A; read-out: % plant inhibition
# Procedure, shortened: (§1)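 Percent inhibition of emergence and growth was recorded roughly 14 days after seeding. Compound was incorporated into, or applied onto, a topsoil cover layer over seeds in pans kept in a greenhouse and watered from below.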
# Wild Oats [2] = test: pre-emergence herbicide test; details: Avena fatua, pre-emergence, 0.25 lb/A; read-out: % plant inhibition
# Procedure, shortened: as §1
# Wheat [3] = test: pre-emergence herbicide test; details: Triticum aestivum, pre-emergence, 0.25 lb/A; read-out: % plant inhibition
# Procedure, shortened: as §1
# Birdseye Speedwell [4] = test: pre-emergence herbicide test; details: pre-emergence, 0.25 lb/A; read-out: % plant inhibition
# Procedure, shortened: as §1
# Corn [5] = test: pre-emergence herbicide test; details: Zea mays, pre-emergence, 0.25 lb/A; read-out: % plant inhibition
# Procedure, shortened: as §1
# Cocklebur [6] = test: pre-emergence herbicide test; details: Xanthium strumarium, pre-emergence, 0.25 lb/A; read-out: % plant inhibition
# Procedure, shortened: as §1
# Morning Glory [7] = test: pre-emergence herbicide test; details: Ipomoea, pre-emergence, 0.25 lb/A; read-out: % plant inhibition
# Procedure, shortened: as §1
# Common Chickweed [8] = test: pre-emergence herbicide test; details: pre-emergence, 0.25 lb/A; read-out: % plant inhibition
# Procedure, shortened: as §1
# Downy Brome [9] = test: pre-emergence herbicide test; details: Bromus tectorum, pre-emergence, 0.25 lb/A; read-out: % plant inhibition
# Procedure, shortened: as §1
# Rape [10] = test: pre-emergence herbicide test; details: pre-emergence, 0.25 lb/A; read-out: % plant inhibition
# Procedure, shortened: as §1
# Soybean [11] = test: pre-emergence herbicide test; details: Glycine max, pre-emergence, 0.25 lb/A; read-out: % plant inhibition
# Procedure, shortened: as §1
# Barnyardgrass [12] = test: pre-emergence herbicide test; details: Echinochloa crus-galli, pre-emergence, 0.25 lb/A; read-out: % plant inhibition
# Procedure, shortened: as §1
# Bedstraw Catchweed [13] = test: pre-emergence herbicide test; details: Galium aparine, pre-emergence, 0.25 lb/A; read-out: % plant inhibition
# Procedure, shortened: as §1
# Giant Foxtail [14] = test: pre-emergence herbicide test; details: Setaria faberi, pre-emergence, 0.25 lb/A; read-out: % plant inhibition
# Procedure, shortened: as §1
# Blackgrass [15] = test: pre-emergence herbicide test; details: Alopecurus myosuroides, pre-emergence, 0.25 lb/A; read-out: % plant inhibition
# Procedure, shortened: as §1
# Velvetleaf [16] = test: pre-emergence herbicide test; details: Abutilon theophrasti, pre-emergence, 0.25 lb/A; read-out: % plant inhibition
# Procedure, shortened: as §1
# Seedling Johnsongrass [17] = test: pre-emergence herbicide test; details: Sorghum halepense, pre-emergence, 0.25 lb/A; read-out: % plant inhibition
# Procedure, shortened: as §1
# Green Foxtail [18] = test: post-emergence herbicide test; details: Setaria viridis, post-emergence, 0.25 lb/A; read-out: % plant inhibition
# Procedure, shortened: (§2)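 Greenhouse plants grown from seeds in topsoil were treated two to three weeks after sowing with a spray solution or suspension of test chemical with about 0.4% by volume emulsifier, applied at 1870 L/Ha and 170.3 kPa. Percent inhibition per species was the endpoint.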
# Wild Oats [19] = test: post-emergence herbicide test; details: Avena fatua, post-emergence, 0.25 lb/A; read-out: % plant inhibition
# Procedure, shortened: as §2
# Wheat [20] = test: post-emergence herbicide test; details: Triticum aestivum, post-emergence, 0.25 lb/A; read-out: % plant inhibition
# Procedure, shortened: as §2
# Birdseye Speedwell [21] = test: post-emergence herbicide test; details: post-emergence, 0.25 lb/A; read-out: % plant inhibition
# Procedure, shortened: as §2
# Corn [22] = test: post-emergence herbicide test; details: Zea mays, post-emergence, 0.25 lb/A; read-out: % plant inhibition
# Procedure, shortened: as §2
# Cocklebur [23] = test: post-emergence herbicide test; details: Xanthium strumarium, post-emergence, 0.25 lb/A; read-out: % plant inhibition
# Procedure, shortened: as §2
# Morning Glory [24] = test: post-emergence herbicide test; details: Ipomoea, post-emergence, 0.25 lb/A; read-out: % plant inhibition
# Procedure, shortened: as §2
# Common Chickweed [25] = test: post-emergence herbicide test; details: post-emergence, 0.25 lb/A; read-out: % plant inhibition
# Procedure, shortened: as §2
# Downy Brome [26] = test: post-emergence herbicide test; details: Bromus tectorum, post-emergence, 0.25 lb/A; read-out: % plant inhibition
# Procedure, shortened: as §2
# Rape [27] = test: post-emergence herbicide test; details: post-emergence, 0.25 lb/A; read-out: % plant inhibition
# Procedure, shortened: as §2
# Soybean [28] = test: post-emergence herbicide test; details: Glycine max, post-emergence, 0.25 lb/A; read-out: % plant inhibition
# Procedure, shortened: as §2
# Barnyardgrass [29] = test: post-emergence herbicide test; details: Echinochloa crus-galli, post-emergence, 0.25 lb/A; read-out: % plant inhibition
# Procedure, shortened: as §2
# Bedstraw Catchweed [30] = test: post-emergence herbicide test; details: Galium aparine, post-emergence, 0.25 lb/A; read-out: % plant inhibition
# Procedure, shortened: as §2
# Giant Foxtail [31] = test: post-emergence herbicide test; details: Setaria faberi, post-emergence, 0.25 lb/A; read-out: % plant inhibition
# Procedure, shortened: as §2
# Blackgrass [32] = test: post-emergence herbicide test; details: Alopecurus myosuroides, post-emergence, 0.25 lb/A; read-out: % plant inhibition
# Procedure, shortened: as §2
# Velvetleaf [33] = test: post-emergence herbicide test; details: Abutilon theophrasti, post-emergence, 0.25 lb/A; read-out: % plant inhibition
# Procedure, shortened: as §2
# Seedling Johnsongrass [34] = test: post-emergence herbicide test; details: Sorghum halepense, post-emergence, 0.25 lb/A; read-out: % plant inhibition
# Procedure, shortened: as §2
structure (smiles),measurement,setting,value
CC(=O)CCCOC(=O)c1cc(-c2nn(C)c(C(F)(F)F)c2C)c(F)cc1Cl [Compound 53],inhibition at 280.212 g/ha,Green Foxtail [1],100%
same,inhibition at 280.212 g/ha,Wild Oats [2],5%
same,inhibition at 280.212 g/ha,Wheat [3],0%
same,inhibition at 280.212 g/ha,Birdseye Speedwell [4],70%
same,inhibition at 280.212 g/ha,Corn [5],5%
same,inhibition at 280.212 g/ha,Cocklebur [6],15%
same,inhibition at 280.212 g/ha,Morning Glory [7],80%
same,inhibition at 280.212 g/ha,Common Chickweed [8],40%
same,inhibition at 280.212 g/ha,Downy Brome [9],15%
same,inhibition at 280.212 g/ha,Rape [10],5%
same,inhibition at 280.212 g/ha,Soybean [11],0%
same,inhibition at 280.212 g/ha,Barnyardgrass [12],85%
same,inhibition at 280.212 g/ha,Bedstraw Catchweed [13],50%
same,inhibition at 280.212 g/ha,Giant Foxtail [14],9%
same,inhibition at 280.212 g/ha,Blackgrass [15],15%
same,inhibition at 280.212 g/ha,Velvetleaf [16],85%
same,inhibition at 280.212 g/ha,Seedling Johnsongrass [17],75%
same,inhibition at 280.212 g/ha,Green Foxtail [18],80%
same,inhibition at 280.212 g/ha,Wild Oats [19],40%
same,inhibition at 280.212 g/ha,Wheat [20],16%
same,inhibition at 280.212 g/ha,Birdseye Speedwell [21],95%
same,inhibition at 280.212 g/ha,Corn [22],7%
same,inhibition at 280.212 g/ha,Cocklebur [23],100%
same,inhibition at 280.212 g/ha,Morning Glory [24],99%
same,inhibition at 280.212 g/ha,Common Chickweed [25],90%
same,inhibition at 280.212 g/ha,Downy Brome [26],45%
same,inhibition at 280.212 g/ha,Rape [27],98%
same,inhibition at 280.212 g/ha,Soybean [28],75%
same,inhibition at 280.212 g/ha,Barnyardgrass [29],70%
same,inhibition at 280.212 g/ha,Bedstraw Catchweed [30],95%
same,inhibition at 280.212 g/ha,Giant Foxtail [31],75%
same,inhibition at 280.212 g/ha,Blackgrass [32],25%
same,inhibition at 280.212 g/ha,Velvetleaf [33],100%
same,inhibition at 280.212 g/ha,Seedling Johnsongrass [34],75%
Cc1c(-c2cc(C(=O)OCC(=O)c3ccccc3)c(Cl)cc2F)nn(C)c1C(F)(F)F [Compound 43],inhibition at 280.212 g/ha,Green Foxtail [1],60%
same,inhibition at 280.212 g/ha,Wild Oats [2],5%
same,inhibition at 280.212 g/ha,Wheat [3],0%
same,inhibition at 280.212 g/ha,Birdseye Speedwell [4],60%
same,inhibition at 280.212 g/ha,Corn [5],0%
same,inhibition at 280.212 g/ha,Cocklebur [6],45%
same,inhibition at 280.212 g/ha,Morning Glory [7],10%
same,inhibition at 280.212 g/ha,Common Chickweed [8],55%
same,inhibition at 280.212 g/ha,Downy Brome [9],5%
same,inhibition at 280.212 g/ha,Rape [10],5%
same,inhibition at 280.212 g/ha,Soybean [11],0%
same,inhibition at 280.212 g/ha,Barnyardgrass [12],15%
same,inhibition at 280.212 g/ha,Bedstraw Catchweed [13],20%
same,inhibition at 280.212 g/ha,Giant Foxtail [14],15%
same,inhibition at 280.212 g/ha,Blackgrass [15],10%
same,inhibition at 280.212 g/ha,Velvetleaf [16],65%
same,inhibition at 280.212 g/ha,Seedling Johnsongrass [17],35%
same,inhibition at 280.212 g/ha,Green Foxtail [18],20%
same,inhibition at 280.212 g/ha,Wild Oats [19],15%
same,inhibition at 280.212 g/ha,Wheat [20],10%
same,inhibition at 280.212 g/ha,Birdseye Speedwell [21],100%
same,inhibition at 280.212 g/ha,Corn [22],7%
same,inhibition at 280.212 g/ha,Cocklebur [23],85%
same,inhibition at 280.212 g/ha,Morning Glory [24],75%
same,inhibition at 280.212 g/ha,Common Chickweed [25],65%
same,inhibition at 280.212 g/ha,Downy Brome [26],10%
same,inhibition at 280.212 g/ha,Rape [27],25%
same,inhibition at 280.212 g/ha,Soybean [28],15%
same,inhibition at 280.212 g/ha,Barnyardgrass [29],5%
same,inhibition at 280.212 g/ha,Bedstraw Catchweed [30],30%
same,inhibition at 280.212 g/ha,Giant Foxtail [31],0%
same,inhibition at 280.212 g/ha,Blackgrass [32],10%
same,inhibition at 280.212 g/ha,Velvetleaf [33],80%
same,inhibition at 280.212 g/ha,Seedling Johnsongrass [34],25%
"CC(C)OC(=O)c1cc(-c2nn(C)c(C(F)(F)F)c2CO)c(F)cc1Cl [Compound 14, 2-Chloro-4-fluoro-5-[4-(hydroxymethyl)-1-methyl-5-(trifluoromethyl)-1H-pyrazol-3-yl]benzoic acid, 1-methylethyl ester]",inhibition at 280.212 g/ha,Green Foxtail [1],100%
same,inhibition at 280.212 g/ha,Wild Oats [2],50%
same,inhibition at 280.212 g/ha,Wheat [3],2%
same,inhibition at 280.212 g/ha,Birdseye Speedwell [4],98%
same,inhibition at 280.212 g/ha,Corn [5],15%
same,inhibition at 280.212 g/ha,Cocklebur [6],15%
same,inhibition at 280.212 g/ha,Morning Glory [7],40%
same,inhibition at 280.212 g/ha,Common Chickweed [8],98%
same,inhibition at 280.212 g/ha,Downy Brome [9],30%
same,inhibition at 280.212 g/ha,Rape [10],5%
same,inhibition at 280.212 g/ha,Soybean [11],8%
same,inhibition at 280.212 g/ha,Barnyardgrass [12],90%
same,inhibition at 280.212 g/ha,Bedstraw Catchweed [13],20%
same,inhibition at 280.212 g/ha,Giant Foxtail [14],98%
same,inhibition at 280.212 g/ha,Blackgrass [15],65%
same,inhibition at 280.212 g/ha,Velvetleaf [16],60%
same,inhibition at 280.212 g/ha,Seedling Johnsongrass [17],97%
same,inhibition at 280.212 g/ha,Green Foxtail [18],65%
same,inhibition at 280.212 g/ha,Wild Oats [19],50%
same,inhibition at 280.212 g/ha,Wheat [20],13%
same,inhibition at 280.212 g/ha,Birdseye Speedwell [21],90%
same,inhibition at 280.212 g/ha,Corn [22],10%
same,inhibition at 280.212 g/ha,Cocklebur [23],95%
same,inhibition at 280.212 g/ha,Morning Glory [24],85%
same,inhibition at 280.212 g/ha,Common Chickweed [25],45%
same,inhibition at 280.212 g/ha,Downy Brome [26],60%
same,inhibition at 280.212 g/ha,Rape [27],75%
same,inhibition at 280.212 g/ha,Soybean [28],25%
same,inhibition at 280.212 g/ha,Barnyardgrass [29],65%
same,inhibition at 280.212 g/ha,Bedstraw Catchweed [30],40%
same,inhibition at 280.212 g/ha,Giant Foxtail [31],25%
same,inhibition at 280.212 g/ha,Blackgrass [32],60%
same,inhibition at 280.212 g/ha,Velvetleaf [33],99%
same,inhibition at 280.212 g/ha,Seedling Johnsongrass [34],80%
